We go through 26 compounds from patent US9896445B2, “Heterocyclic inhibitors of ERK1 and ERK2 and their use in the treatment of cancer” (Asana Biosciences, LLC, priority 2015, dated 2018).

For experiment [1], the target named is T1, ERK1 (Homo sapiens, UniProt P27361).
T1 construct: purchased Jubilant Biosys
The experiment is described as follows: ERK1 HTRF (biochemical) assay. As for the experimental part: ERK1 and ERK2 HTRF (Biochemical) Assays
These assays employed a homogeneous time resolved fluorescence (HTRF) technique. […] The plate was incubated at room temperature for 60 min with shaking. […] The IC50 values (half maximal inhibitory concentration values) were subsequently determined using a sigmoidal dose-response curve (variable slope) in GraphPad Prism® 5 software.

The target of experiment [2] is T2, ERK2 (Homo sapiens, UniProt P28482).
T2 construct: purchased Jubilant Biosys
Nature of the experiment: ERK2 HTRF (biochemical) assay. The procedure, abridged: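 Compounds were tested as half-log dilutions from 0.0005 to 10 uM in Tris pH 7.5/MgCl2 buffer, with a substrate mix of 1 uM biotin-MBP peptide and 24 uM ATP and an enzyme mix of 25 nM ERK2. Reaction ran 60 min at room temperature. Phospho-MBP was detected by HTRF (Eu-anti-phospho-MBP/SA-APC, 665/620 nm), and IC50 was fitted with a variable-slope sigmoidal curve.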

T2 sequence (P28482 whole entry): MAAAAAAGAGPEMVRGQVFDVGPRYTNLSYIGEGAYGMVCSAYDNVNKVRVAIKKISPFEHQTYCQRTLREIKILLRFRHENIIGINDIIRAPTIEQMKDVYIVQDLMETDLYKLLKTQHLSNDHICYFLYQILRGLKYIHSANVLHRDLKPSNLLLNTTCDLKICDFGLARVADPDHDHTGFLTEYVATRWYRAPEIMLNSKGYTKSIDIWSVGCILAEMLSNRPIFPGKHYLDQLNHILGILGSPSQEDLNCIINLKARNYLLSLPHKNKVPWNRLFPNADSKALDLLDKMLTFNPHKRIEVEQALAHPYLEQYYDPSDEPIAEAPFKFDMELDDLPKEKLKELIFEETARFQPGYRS
T1 sequence (P27361 whole entry): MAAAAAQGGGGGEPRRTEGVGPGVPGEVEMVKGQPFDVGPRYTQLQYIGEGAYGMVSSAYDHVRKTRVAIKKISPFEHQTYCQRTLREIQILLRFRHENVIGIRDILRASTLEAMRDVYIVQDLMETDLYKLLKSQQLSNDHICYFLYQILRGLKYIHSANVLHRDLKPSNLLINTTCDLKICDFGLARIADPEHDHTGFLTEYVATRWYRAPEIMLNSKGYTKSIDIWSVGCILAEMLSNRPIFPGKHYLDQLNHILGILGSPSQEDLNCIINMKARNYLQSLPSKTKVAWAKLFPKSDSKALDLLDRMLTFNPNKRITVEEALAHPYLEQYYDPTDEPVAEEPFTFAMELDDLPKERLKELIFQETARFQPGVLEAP

As for `O=C(Nc1cnn(-c2nc(NC3CC3)ncc2F)c1)N[C@H](CO)c1cccc(Cl)c1` [Compound 30, (S)-1-(1-(3-chlorophenyl)-2-hydroxyethyl)-3-(1-(2-(cyclopropyl-amino)-5-fluoro-pyrimidin-4-yl)-1H-pyrazol-4-yl)urea], the figures for the IC50 in experiment [1] (HTRF) and in experiment [2] (HTRF) were < 50 nM and ≤ 50 nM, respectively.

Take `Cc1cnc(NC2CCOCC2)nc1-n1cnc(C(=O)NCc2cccc(Cl)n2)c1` [Example 307, N-((6-chloro-pyridin-2-yl)methyl)-1-(5-methyl-2-((tetrahydro-2H-pyran-4-yl)amino)-pyrimidin-4-yl)-1H-imidazole-4-carboxamide]: the IC50 in experiment [1] (HTRF) was < 50 nM; in experiment [2] (HTRF), ≤ 50 nM.

On to `Cc1cnc(Nc2ccc(F)cc2)nc1-n1ccc(C(=O)NC(CO)c2ccccc2)c1` (stereo not shown) [Compound 114, 1-(2-((4-fluoro-phenyl)amino)-5-methylpyrimidin-4-yl)-N-(2-hydroxy-1-phenylethyl)-1H-pyrrole-3-carboxamide], for which the IC50 in experiment [1] (HTRF) was < 50 nM; in experiment [2] (HTRF), ≤ 50 nM.

Take `CC(=O)OCc1c(Cl)cccc1CNC(=O)c1cn(-c2nc(NC3CCOCC3)ncc2C)cn1` [Example 340, 2-chloro-6-((1-(5-methyl-2-((tetrahydro-2H-pyran-4-yl)amino)-pyrimidin-4-yl)-1H-imidazole-4-carboxamido)-methyl)benzyl acetate]: the IC50 in experiment [1] (HTRF biochemical assay) was < 50 nM; in experiment [2] (HTRF biochemical assay), ≤ 50 nM.

Take `Cc1cnc(NC2CC(F)(F)C2)nc1-n1cnc(C(=O)NC(CN)c2cc(F)cc(Cl)c2)c1` (stereo not shown) [Example 278, N-(2-amino-1-(3-chloro-5-fluoro-phenyl)ethyl)-1-(2-((3,3-difluoro-cyclobutyl)amino)-5-methylpyrimidin-4-yl)-1H-imidazole-4-carboxamide]: the IC50 in experiment [1] (HTRF) is < 50 nM; in experiment [2] (HTRF), ≤ 50 nM.

As to `Cc1cnc(Nc2ccc(F)cc2Cl)nc1-n1ccc(C(=O)N[C@H](CO)c2cccc(Cl)c2)c1` [Compound 29, (S)-1-(2-((2-Chloro-4-fluorophenyl)amino)-5-methylpyrimidin-4-yl)-N-(1-(3-chlorophenyl)-2-hydroxyethyl)-1H-pyrrole-3-carboxamide], the half-inhibitory concentration (IC50) in experiment [1] (HTRF) was < 50 nM; in experiment [2] (HTRF) it was ≤ 50 nM.

With `COC[C@@H](NC(=O)c1ccn(-c2nc(Nc3ccc4c(c3)OCO4)ncc2C)c1)c1ccccc1` [Compound 64, (S)-1-(2-(benzo[d][1,3]dioxol-5-ylamino)-5-methylpyrimidin-4-yl)-N-(2-methoxy-1-phenylethyl)-1H-pyrrole-3-carboxamide], the half-maximal inhibitory concentration (IC50) in experiment [1] (HTRF) was < 50 nM; in experiment [2] (HTRF) it was ≤ 50 nM.

As to `O=C(NC(CO)c1ccccc1)c1ccn(-c2nc(Nc3ccc4c(c3)OCO4)ncc2F)c1` (stereo not shown) [Compound 66, 1-(2-(benzo[d][1,3]dioxol-5-ylamino)-5-fluoropyrimidin-4-yl)-N-(2-hydroxy-1-phenylethyl)-1H-pyrrole-3-carboxamide], the figures for the IC50 in experiment [1] (HTRF) and in experiment [2] (HTRF) were < 50 nM and ≤ 50 nM, respectively.

In the case of `Cc1cnc(Nc2ccc3c(c2)OC(F)(F)O3)nc1-n1ccc(C(=O)NC(CO)c2cccc(Cl)c2)c1` (stereo not shown) [Compound 62, N-(1-(3-chloro-phenyl)-2-hydroxyethyl)-1-(2-((2,2-difluoro-benzo[d][1,3]dioxol-5-yl)amino)-5-methylpyrimidin-4-yl)-1H-pyrrole-3-carboxamide], the IC50 in experiment [1] (HTRF) is < 50 nM; in experiment [2] (HTRF), ≤ 50 nM.

For the compound `Cc1cnc(N[C@H]2CCOC2)nc1-n1cnc(C(=O)NCc2cccc(C(F)(F)F)c2)c1` [Example 311, (S)-1-(5-methyl-2-((tetrahydrofuran-3-yl)amino)-pyrimidin-4-yl)-N-(3-(trifluoro-methyl)benzyl)-1H-imidazole-4-carboxamide], the IC50 was 50 to 100 nM in experiment [1] (HTRF biochemical assay) and ≤ 50 nM in experiment [2] (HTRF biochemical assay).

As for `Cc1cnc(NC2CCOCC2)nc1-n1cnc(C(=O)NCc2cccc(CO)c2Cl)c1` [Example 335, N-(2-chloro-3-(hydroxymethyl)-benzyl)-1-(5-methyl-2-((tetrahydro-2H-pyran-4-yl)amino)-pyrimidin-4-yl)-1H-imidazole-4-carboxamide], the values for the IC50 in experiment [1] (HTRF biochemical assay) and in experiment [2] (HTRF biochemical assay) were < 50 nM and ≤ 50 nM, respectively.

As to `Cc1cnc(NC2CCOC2)nc1-n1ccc(C(=O)N[C@H](CO)c2cccc(Cl)c2)c1` (stereo partly drawn) [Compound 151, N-((S)-1-(3-chlorophenyl)-2-hydroxyethyl)-1-(5-methyl-2-((tetrahydrofuran-3-yl)amino)pyrimidin-4-yl)-1H-pyrrole-3-carboxamide], the values for the IC50 in experiment [1] (HTRF) and in experiment [2] (HTRF) were < 50 nM and ≤ 50 nM, respectively.

As for `Cc1cnc(NC2CCOCC2)nc1-n1cnc(C(=O)NC(C(N)=O)c2cccc(Cl)c2)c1` (stereo not shown) [Example 312, N-(2-amino-1-(3-chlorophenyl)-2-oxoethyl)-1-(5-methyl-2-((tetrahydro-2H-pyran-4-yl)amino)-pyrimidin-4-yl)-1H-imidazole-4-carboxamide], the 50% inhibitory concentration (IC50) in experiment [1] (HTRF biochemical assay) was < 50 nM; in experiment [2] (HTRF biochemical assay), ≤ 50 nM.

On to `Cc1cnc(NC2CCOCC2)nc1-n1cnc(C(=O)N[C@H](CO)c2cc(F)cc(Cl)c2)c1` [Example 295, (S)-N-(1-(3-chloro-5-fluorophenyl)-2-hydroxyethyl)-1-(5-methyl-2-((tetrahydro-2H-pyran-4-yl)amino)-pyrimidin-4-yl)-1H-imidazole-4-carboxamide], for which the concentration for half-maximal inhibition (IC50) is < 50 nM in experiment [1] (HTRF) and ≤ 50 nM in experiment [2] (HTRF).

Turning to `Cc1cnc(NC2CCOCC2)nc1-n1cnc(C(=O)NC(CN)c2cccc(Cl)c2)c1` (racemic) [Compound 225, N-(2-Amino-1-(3-chlorophenyl)ethyl)-1-(5-methyl-2-((tetrahydro-2H-pyran-4-yl)amino)pyrimidin-4-yl)-1H-imidazole-4-carboxamide], the IC50 in experiment [1] (HTRF) was < 50 nM; in experiment [2] (HTRF) it was ≤ 50 nM.

For `O=C(NC(CO)c1cccc(Cl)c1)c1ccn(-c2cc(Nc3ccccc3)ncc2Cl)c1` (stereo not shown) [Compound 124, 1-(5-chloro-2-(phenylamino)pyridin-4-yl)-N-(1-(3-chlorophenyl)-2-hydroxyethyl)-1H-pyrrole-3-carboxamide], the half-maximal inhibitory concentration (IC50) is < 50 nM in experiment [1] (HTRF) and ≤ 50 nM in experiment [2] (HTRF).

Take `Cc1cnc(Nc2ccc(N3CCOCC3)cc2)nc1-n1ccc(C(=O)NC(CO)c2cccc(Cl)c2)c1` (stereo not shown) [Compound 205, N-(1-(3-chlorophenyl)-2-hydroxyethyl)-1-(5-methyl-2-((4-morpholinophenyl)amino)pyrimidin-4-yl)-1H-pyrrole-3-carboxamide]: the concentration for half-maximal inhibition (IC50) in experiment [1] (HTRF) was < 50 nM; in experiment [2] (HTRF), ≤ 50 nM.

Regarding `CN(C(=O)Nc1cnn(-c2ccnc(NC3CC3)n2)c1)[C@H](CO)c1ccccc1` [Compound 18, (S)-3-(1-(2-(cyclopropylamino)pyrimidin-4-yl)-1H-pyrazol-4-yl)-1-(2-hydroxy-1-phenylethyl)-1-methylurea], the IC50 in experiment [1] (HTRF) was < 50 nM; in experiment [2] (HTRF) it was 100 to 500 nM.

For the compound `Cc1cnc(Nc2ccc3c(c2)CC(=O)N3)nc1-n1ccc(C(=O)NC(CO)c2cccc(Cl)c2)c1` (stereo not shown) [Compound 198, N-(1-(3-chloro-phenyl)-2-hydroxy-ethyl)-1-(5-methyl-2-((2-oxoindolin-5-yl)amino)pyrimidin-4-yl)-1H-pyrrole-3-carboxamide], the IC50 is < 50 nM in experiment [1] (HTRF) and ≤ 50 nM in experiment [2] (HTRF).

With `Cc1cnc(Nc2ccc3c(c2)OC(F)(F)O3)cc1-n1cnc(C(=O)NC(CN)Cc2ccccc2)c1` (stereo not shown) [Compound 99, N-(1-amino-3-phenylpropan-2-yl)-1-(2-((2,2-difluorobenzo[d] [1,3]dioxol-5-yl)amino)-5-methylpyridin-4-yl)-1H-imidazole-4-carboxamide], the 50% inhibitory concentration (IC50) in experiment [1] (HTRF) and in experiment [2] (HTRF) was 100 to 500 nM in each case.

Regarding `Cc1cnc(Nc2ccc3c(c2)OC(F)(F)O3)nc1-n1ccc(C(=O)NC(CN)c2cccc(Cl)c2)c1` (stereo not shown) [Compound 136, N-(2-amino-1-(3-chlorophenyl)ethyl)-1-(2-((2,2-difluorobenzo[d][1,3]dioxol-5-yl)amino)-5-methylpyrimidin-4-yl)-1H-pyrrole-3-carboxamide], the IC50 is 50 to 100 nM in experiment [1] (HTRF) and ≤ 50 nM in experiment [2] (HTRF).

As for `O=C(NC(CO)c1cccc(Cl)c1)c1cn(-c2cc(Nc3ccccc3)ncc2Cl)cn1` (stereo not shown) [Compound 106, 1-(5-Chloro-2-(phenylamino)pyridin-4-yl)-N-(1-(3-chlorophenyl)-2-hydroxyethyl)-1H-imidazole-4-carboxamide], the concentration for half-maximal inhibition (IC50) is < 50 nM in experiment [1] (HTRF) and ≤ 50 nM in experiment [2] (HTRF).

On to `Cc1cnc(Nc2ccc3c(c2)OCO3)nc1-n1ccc(C(=O)NC(CO)c2cc(Cl)cc(Cl)c2)c1` (stereo not shown) [Compound 58, 1-(2-(benzo[d][1,3]dioxol-5-ylamino)-5-methylpyrimidin-4-yl)-N-(1-(3,5-dichlorophenyl)-2-hydroxyethyl)-1H-pyrrole-3-carboxamide], for which the values for the 50% inhibitory concentration (IC50) in experiment [1] (HTRF) and in experiment [2] (HTRF) were < 50 nM and ≤ 50 nM, respectively.

For the compound `Cc1cnc(NC2CCOCC2)nc1-n1cnc(C(=O)NCc2cccc(Cl)c2CO)c1` [Compound 93, N-(3-chloro-2-(hydroxymethyl)benzyl)-1-(5-methyl-2-((tetrahydro-2H-pyran-4-yl)amino)pyrimidin-4-yl)-1H-imidazole-4-carboxamide], the 50% inhibitory concentration (IC50) in experiment [1] (HTRF) was < 50 nM; in experiment [2] (HTRF), ≤ 50 nM.

As for `Cc1cnc(Nc2ccc3c(c2)OCO3)nc1-n1ccc(C(=O)N[C@H](CO)c2ccccc2)c1` [Compound 60, (S)-1-(2-(benzo[d][1,3]dioxol-5-ylamino)-5-methylpyrimidin-4-yl)-N-(2-hydroxy-1-phenylethyl)-1H-pyrrole-3-carboxamide], the IC50 in experiment [1] (HTRF) is < 50 nM; in experiment [2] (HTRF), ≤ 50 nM.

Regarding `CC[C@H](CO)Nc1ncc(C)c(-n2cnc(C(=O)NCc3cccc(Cl)c3CO)c2)n1` [Example 336, (R)-N-(3-chloro-2-(hydroxymethyl)-benzyl)-1-(2-((1-hydroxybutan-2-yl)amino)-5-methylpyrimidin-4-yl)-1H-imidazole-4-carboxamide], the IC50 in experiment [1] (HTRF biochemical assay) is < 50 nM; in experiment [2] (HTRF biochemical assay) it was ≤ 50 nM.
